Experimental data taken from PubChem BioAssay AID1334 (NMMLSC, 2008).

Each compound was assayed against Cell division control protein 42 homolog (Homo sapiens) (UniProt P60953) (assay: inhibition of fluorescent GTP binding to wildtype Cdc42 – biochemical, multiplex bead flow cytometry, Bodipy-FL-GTP, dose response (AID 1334;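 further: potency of inhibiting fluorescent GTP binding to Cdc42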)). Conditions: bead-based flow cytometry, Bodipy-FL-GTP binding to GST-Cdc42.
Sequence of Cell division control protein 42 homolog (Homo sapiens) (P60953 whole entry, looked up): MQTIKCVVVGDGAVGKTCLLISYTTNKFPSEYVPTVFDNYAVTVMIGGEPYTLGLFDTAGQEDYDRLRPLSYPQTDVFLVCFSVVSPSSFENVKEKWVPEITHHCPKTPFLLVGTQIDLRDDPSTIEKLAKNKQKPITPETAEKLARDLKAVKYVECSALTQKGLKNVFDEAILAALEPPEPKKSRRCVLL

Structure (SMILES) | EC50 [µM]
N#Cc1c(-c2ccccc2)nc(SCC(=O)Nc2ccccc2)[nH]c1=O | 2.1
S=C(Nc1ccc(Oc2ccccc2)cc1)NC1CCCCC1 | 32.8
O=C(NCc1cccs1)c1cccnc1C(=O)O | 4.01
Cc1nc2c(=O)n(C)c(=O)nc-2n(C)n1 | 1.96
Cc1cc(C)c(C)c(C(=O)c2ccccc2C(=O)O)c1C | 5.95
COc1ccc(C2CC(c3ccccc3)=NN2c2ccc(S(N)(=O)=O)cc2)cc1 (configuration not stated) | 3.2
CC(=O)c1ccc(C#CC(=O)c2ccc([N+](=O)[O-])cc2)cc1 | 0.394
O=C(Nc1nnc(-c2ccc3c(c2)OCCO3)o1)c1ccc(Cc2ccccc2)cc1 | 0.355
CC(C)C(NCc1c(Cl)cccc1Cl)C(=O)O (configuration not stated) | 6.4
Cc1sc2nc3ccc(NCc4ccco4)nn3c(=O)c2c1C | 21.5
Cc1ccc(C)c(OCCn2cc(C(=O)O)c3ccccc32)c1 | 0.584
CCOC(=O)c1c(NC(=O)C(=O)N/N=C/c2ccc(O)c(OC)c2)sc2c1CCCCC2 | 2.87
CS(=O)(=O)c1ccc(C(=O)OCC(=O)NC(=O)C2CCCCC2)cc1[N+](=O)[O-] | 53.1
O=C(O)c1ccccc1OCc1ccccc1Br | 0.103
O=C(O)c1ccccc1Sc1ncnc2sc3c(c12)CCC3 | 4.38
CCCS(=O)(=O)c1nnnn1-c1cccc(OC)c1 | 19.3

Structure (SMILES) | EC50 [µM]
CCOC(=O)c1cc([N+](=O)[O-])c([N+](=O)[O-])cc1NC(C)=O | 7.19
NS(=O)(=O)c1ccc(N2N=C(c3ccccc3)CC2c2ccccc2)cc1 (configuration not stated) | 8.22
CCOc1ccc(/C=C2\SC(N3CCc4ccccc4C3)=NC2=O)cc1 | 40.5
CCCN1C(=O)/C(=C/C=C2\N(CC)c3ccccc3C2(C)C)SC1=S | 5.49
NS(=O)(=O)c1ccc(N2N=C(c3ccccc3)CC2c2cccc(F)c2)cc1 (configuration not stated) | 4.87
O=C(O)/C=C/c1cn(Cc2ccccc2)nc1-c1cccs1 | 3.99
CCc1ccc(NS(=O)(=O)c2ccc3[nH]cc(C(=O)N4CCc5ccccc54)c(=O)c3c2)cc1 | 18.9
O=C(O)c1ccccc1NCCc1ccc(Cl)cc1 | 1.53
CCS(=O)(=O)N1N=C(c2cccc(NS(C)(=O)=O)c2)CC1c1ccc(C)cc1 (configuration not stated) | 2.6
Cc1cccc2cc(CN(Cc3cccs3)C(c3nnnn3C3CCCC3)C(C)C)c(=O)[nH]c12 (configuration not stated) | 1.96
CCCc1nc2c(=O)n(C)c(=O)nc-2n(C)n1 | 1.33
CCOC(=O)Cn1nnnc1C(C(C)C)N(Cc1cccs1)Cc1cc2cc(C)ccc2[nH]c1=O (configuration not stated) | 7.28
COc1ccc(-c2cc(C#N)nc(N3CCNCC3)n2)cc1 | 28.1
COC(=O)c1cccnc1SCCc1ccccc1 | 18.7
CCC(C(=O)NC1CCCC1)N(C(=O)Cn1nnc(-c2ccc(C)o2)n1)c1cnc2ccccc2c1 (configuration not stated) | 34.6
CCn1nc(/C=C/c2ccccc2)nc2c(=O)n(C)c(=O)nc1-2 | 1.55
